Results taken from US7141397B2, “Method of preparing a guanosine-group compound and an intermediate thereof” (Yuki Gosei Kogyo Co., Ltd., priority 2000, dated 2006).

Test: Solubility of guanine and glyoxal-guanine in water (HPLC of liquid layer)
Type: physicochemical
Details: for solubility to water: general statement, no temperature given; for Solubility at each temperature: water, stirred 1 hour
Protocol: An excess amount of each compound was suspended in water, stirred for 1 hour at each temperature and left for a while. The liquid layer was analyzed with HPLC equipped with a UV detector, under the conditions described below.
Conditions of the HPLC analysis:
Column: Superiorex ODS (manufactured by Shiseido)
Eluent: 0.1 M ammonium dihydrogenphosphate solution: methanol=97:3 (v/v)

| solubility to water | Solubility at each temperature (30° C.) | Solubility at each temperature (40° C.) | Solubility at each temperature (50° C.) | Solubility at each temperature (60° C.) | SMILES |
| --- | --- | --- | --- | --- | --- |
| soluble to water | 200 mg/kg | 275 mg/kg | 330 mg/kg | 440 mg/kg | O=c1c2nc[nH]c2nc2n1C(O)C(O)N2 (stereo not shown) [Glyoxal-guanine, 6,7-dihydro-6,7-dihydroxyimidazo[1,2-a]purine-9(3H)-one] |
| does not exceed a few ppm | ≤ 2 or mg/kg | ≤ 2 or mg/kg | 2 mg/kg | 2 mg/kg | Nc1nc2nc[nH]c2c(=O)[nH]1 [Guanine, guanine] |
